Test results from US5560935A, “Physiologically active substances extracted from activated tissues” (Nippon Zoki Pharmaceutical Co., Ltd., priority 1993, dated 1996).

Tested on: plasma kallikrein
Experiment: Inhibition of the production of plasma kallikrein (kaolin-activated plasma, synthetic substrate)
Assay type: biochemical
Conditions: normal human plasma, kaolin activation, substrate D-Pro-Phe-Arg-p-nitroaniline
Description: The inhibitory action of the physiologically-active substance against the production of plasma kallikrein was measured according to a method described in Kiso to Rinsho, vol. 20, no. 17, pages 399-405 (1986).
Thus, a suspension of kaolin was added to normal human plasma diluted with a physiologically saline solution. A lima bean trypsin inhibitor was added thereto after a certain period to stop the kallikrein procluction reaction. Then the resulting kallikrein was determined by using a synthetic substrate (D-Pro-Phe-Arg-p-nitroaniline). The test substance was placed in the above system whereby the inhibitory action of the test substance against the production of kallikrein was determined.
In Table 1 the potency of the activity is given in terms of the concentration (IC50) at which the production of the plasma kallikrein was inhibited to an extent of 50%: […]

Structure (SMILES)	IC50, concentration at which the production of the plasma kallikrein was inhibited to an extent of 50%
CC(C(=O)O)c1cccc(C(=O)c2ccccc2)c1 (stereo not drawn) [Ketoprofen]	400 micrograms/ml
CC(C)Cc1ccc(C(C)C(=O)O)cc1 (stereo not drawn) [Ibuprofen]	700 micrograms/ml
CC(C)=CCN1CCC2(C)c3cc(O)ccc3CC1C2C (stereo not drawn) [Pentazocine]	1,600 micrograms/ml
